Measured values taken from PMC3138877 (Cancer research, 2011).
Where two headings read alike, the source gives them in different places.

Experiments:
[1] = tested on: HCC78 cells (SLC34A2-ROS fusion); conditions: cited from earlier work
[2] = tested on: H3122 lung cancer cells harboring EML4-ALK E13;A20 (variant 1); test: Cell Titer Blue viability, H3122; format: cell-based, human; conditions: for fold more potent than PF-1066 in H3122: growth inhibition
[3] = tested on: PC-9 lung cancer cells (EGFR exon 19 del); test: Cell Titer Blue viability, PC-9; format: cell-based, human; conditions: read-out: IC50 PC-9
[4] = tested on: SUDHL-1 lymphoma cells (NPM-ALK); test: Cell Titer Blue viability, SUDHL-1; format: cell-based, human; conditions: read-out: IC50 SUDHL-1, 72h
[5] = Pharmacokinetic study, plasma levels in mice; format: in vivo; conditions: for plasma level at 2 hours after dosing: mice, oral; for bioavailability in vivo / half-life in vivo: pharmacokinetic study
[6] = tested on: HepG2 hepatocellular carcinoma cells; test: Cell Titer Blue viability, HepG2; format: cell-based, human; conditions: read-out: IC50 HepG2
[7] = tested on: MKN-45 gastric carcinoma cells (MET dependent); test: Cell Titer Blue viability, MKN-45; format: cell-based, human; conditions: read-out: IC50 MKN-45, 72h
[8] = Blood-brain-barrier penetration in C57BL/6J mice; format: in vivo; conditions: for brain penetration (brain tissue concentration as % of plasma level): C57BL/6J mice, 2 hours after dosing
[9] = tested on: H2228 lung cancer cells (EML4-ALK E6a/b;A20); test: Cell Titer Blue viability, H2228; format: cell-based, human; conditions: for IC50: read-out: IC50 H2228, 72h, Cell titer blue
[10] = tested on: H2030 lung cancer cells (KRAS G12C); test: Cell Titer Blue viability, H2030; format: cell-based, human; conditions: read-out: IC50 H2030
[11] = tested on: Ba/F3 cells expressing EML4-ALK E13;A20 L1196M; test: Cell Titer Blue viability, Ba/F3 EML4-ALK L1196M; format: cell-based; conditions: 72h
EML4-ALK E13;A20 L1196M = EML4-ALK E13;A20 L1196M (Homo sapiens, UniProt Q9HC35+Q9UM73, L1196M); test: Surrogate kinase assay, L1196M mutant in 293 cells; format: cell-based; conditions: 2 hours, at higher concentrations than for wild-type fusion
ALK = ALK (Homo sapiens, UniProt Q9UM73); test: Ambit KINOMEscan dose-response profiling, ALK; conditions: for IC50: read-out: IC50 ALK (Ambit assays), Biochemical potency, Kinomescan
[12] = tested on: EML4-ALK E13;A20 in H3122 lung cancer cells; test: Endogenous ALK phosphorylation immunoblot in H3122; format: cell-based, human; conditions: 1 hour treatment, compared to PF-1066
EML4-ALK E13;A20 C1156Y = EML4-ALK E13;A20 C1156Y (Homo sapiens, UniProt Q9HC35+Q9UM73, C1156Y); test: Surrogate kinase assay, C1156Y mutant in 293 cells; format: cell-based; conditions: 2 hours, at higher concentrations than for wild-type fusion
[13] = 10-day repeated oral toxicity study in SD rats; conditions: for no significant toxicity (NST) level: 10 days repeated oral administration
MET = MET (Homo sapiens, UniProt P08581); test: Ambit KINOMEscan dose-response profiling, MET; conditions: read-out: IC50 MET (Ambit assays), Biochemical potency
[14] = tested on: SY5Y neuroblastoma cells (ALK F1174L); test: Cell Titer Blue viability, SY5Y; format: cell-based, human; conditions: read-out: IC50 SY5Y, 72h
[15] = tested on: Ba/F3 cells expressing EML4-ALK E13;A20 C1156Y; test: Cell Titer Blue viability, Ba/F3 EML4-ALK C1156Y; format: cell-based; conditions: 72h
[16] = tested on: HCC78 cells (SLC34A2-ROS fusion); test: Cell Titer Blue viability, HCC78; format: cell-based, human
H3122 xenografts = test: H3122 xenograft study in nude mice; format: in vivo; conditions: for growth of H3122 xenograft tumors vs vehicle: nude mice, oral gavage; for mouse weight: xenograft experiment
[17] = tested on: Ba/F3 cells expressing EML4-ALK E13;A20 WT; test: Cell Titer Blue viability, Ba/F3 EML4-ALK WT; format: cell-based
EML4-ALK E13;A20 = EML4-ALK E13;A20 (Homo sapiens, UniProt Q9HC35+Q9UM73); test: Surrogate kinase assay; format: cell-based; conditions: 2 hours treatment, immunoblot, compared with PF-1066
ROS1 = ROS1 (Homo sapiens, UniProt P08922); test: Ambit screen, ROS1; conditions: read-out: IC50 ROS1 in vitro (Ambit screen); racemic forms
H3122 cells = test: Annexin V / propidium iodide apoptosis assay; format: cell-based, human; conditions: 72h, increasing concentrations
[18] = tested on: EML4-ALK E13;A20, EML4-ALK E20;A20, EML4-ALK E6b;A20 and KIF5B-ALK; test: Surrogate kinase assays on four ALK variants in 293 cells; format: cell-based
[19] = 72 hours, Chou-Talalay and Mix-Low methods
[20] = read-out: IC50 H3122, 72h, Cell titer blue
[21] = read-out: IC50 HCC78, 72h, Cell titer blue

Sequence of ALK (Q9UM73 19-1620): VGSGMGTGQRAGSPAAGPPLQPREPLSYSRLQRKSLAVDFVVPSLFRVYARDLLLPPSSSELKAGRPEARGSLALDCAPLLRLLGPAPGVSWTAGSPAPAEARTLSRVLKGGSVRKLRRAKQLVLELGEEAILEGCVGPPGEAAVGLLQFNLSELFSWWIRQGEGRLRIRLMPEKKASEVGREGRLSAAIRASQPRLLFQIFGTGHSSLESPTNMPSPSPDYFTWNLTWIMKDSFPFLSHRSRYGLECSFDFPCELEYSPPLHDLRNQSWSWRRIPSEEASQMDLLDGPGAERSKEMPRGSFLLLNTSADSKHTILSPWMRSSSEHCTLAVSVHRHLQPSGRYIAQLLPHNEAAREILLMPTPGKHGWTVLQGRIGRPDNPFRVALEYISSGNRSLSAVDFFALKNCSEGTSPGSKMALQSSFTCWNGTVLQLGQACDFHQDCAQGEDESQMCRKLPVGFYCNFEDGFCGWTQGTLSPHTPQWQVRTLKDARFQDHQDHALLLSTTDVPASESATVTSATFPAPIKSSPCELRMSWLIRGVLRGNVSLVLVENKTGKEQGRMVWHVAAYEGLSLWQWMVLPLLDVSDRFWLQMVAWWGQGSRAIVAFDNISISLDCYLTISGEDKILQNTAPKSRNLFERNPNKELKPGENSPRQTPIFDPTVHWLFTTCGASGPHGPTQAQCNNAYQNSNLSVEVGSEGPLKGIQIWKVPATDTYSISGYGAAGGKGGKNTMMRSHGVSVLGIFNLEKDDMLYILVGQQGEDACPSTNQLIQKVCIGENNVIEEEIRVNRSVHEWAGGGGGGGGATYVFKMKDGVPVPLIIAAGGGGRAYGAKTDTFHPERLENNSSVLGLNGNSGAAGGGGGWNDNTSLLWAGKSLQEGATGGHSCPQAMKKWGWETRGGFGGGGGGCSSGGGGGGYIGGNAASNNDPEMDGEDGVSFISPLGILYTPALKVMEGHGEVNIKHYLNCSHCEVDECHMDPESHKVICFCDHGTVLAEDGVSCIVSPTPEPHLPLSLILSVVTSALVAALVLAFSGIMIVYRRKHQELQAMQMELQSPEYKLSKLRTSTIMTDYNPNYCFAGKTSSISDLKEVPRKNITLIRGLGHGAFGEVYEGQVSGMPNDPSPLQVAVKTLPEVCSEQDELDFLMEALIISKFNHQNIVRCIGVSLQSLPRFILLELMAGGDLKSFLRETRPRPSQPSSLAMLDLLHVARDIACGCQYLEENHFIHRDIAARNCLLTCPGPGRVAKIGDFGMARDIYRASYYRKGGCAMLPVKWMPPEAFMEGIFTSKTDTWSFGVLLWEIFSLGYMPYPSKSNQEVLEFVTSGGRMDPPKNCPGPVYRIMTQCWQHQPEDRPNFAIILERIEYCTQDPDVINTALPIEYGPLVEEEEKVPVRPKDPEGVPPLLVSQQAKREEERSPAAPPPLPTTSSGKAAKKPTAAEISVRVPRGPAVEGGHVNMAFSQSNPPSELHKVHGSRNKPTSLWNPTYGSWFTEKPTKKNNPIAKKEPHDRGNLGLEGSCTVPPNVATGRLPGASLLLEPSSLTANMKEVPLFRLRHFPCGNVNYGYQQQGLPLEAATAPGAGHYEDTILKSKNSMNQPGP
Sequence of MET (P08581 25-1390): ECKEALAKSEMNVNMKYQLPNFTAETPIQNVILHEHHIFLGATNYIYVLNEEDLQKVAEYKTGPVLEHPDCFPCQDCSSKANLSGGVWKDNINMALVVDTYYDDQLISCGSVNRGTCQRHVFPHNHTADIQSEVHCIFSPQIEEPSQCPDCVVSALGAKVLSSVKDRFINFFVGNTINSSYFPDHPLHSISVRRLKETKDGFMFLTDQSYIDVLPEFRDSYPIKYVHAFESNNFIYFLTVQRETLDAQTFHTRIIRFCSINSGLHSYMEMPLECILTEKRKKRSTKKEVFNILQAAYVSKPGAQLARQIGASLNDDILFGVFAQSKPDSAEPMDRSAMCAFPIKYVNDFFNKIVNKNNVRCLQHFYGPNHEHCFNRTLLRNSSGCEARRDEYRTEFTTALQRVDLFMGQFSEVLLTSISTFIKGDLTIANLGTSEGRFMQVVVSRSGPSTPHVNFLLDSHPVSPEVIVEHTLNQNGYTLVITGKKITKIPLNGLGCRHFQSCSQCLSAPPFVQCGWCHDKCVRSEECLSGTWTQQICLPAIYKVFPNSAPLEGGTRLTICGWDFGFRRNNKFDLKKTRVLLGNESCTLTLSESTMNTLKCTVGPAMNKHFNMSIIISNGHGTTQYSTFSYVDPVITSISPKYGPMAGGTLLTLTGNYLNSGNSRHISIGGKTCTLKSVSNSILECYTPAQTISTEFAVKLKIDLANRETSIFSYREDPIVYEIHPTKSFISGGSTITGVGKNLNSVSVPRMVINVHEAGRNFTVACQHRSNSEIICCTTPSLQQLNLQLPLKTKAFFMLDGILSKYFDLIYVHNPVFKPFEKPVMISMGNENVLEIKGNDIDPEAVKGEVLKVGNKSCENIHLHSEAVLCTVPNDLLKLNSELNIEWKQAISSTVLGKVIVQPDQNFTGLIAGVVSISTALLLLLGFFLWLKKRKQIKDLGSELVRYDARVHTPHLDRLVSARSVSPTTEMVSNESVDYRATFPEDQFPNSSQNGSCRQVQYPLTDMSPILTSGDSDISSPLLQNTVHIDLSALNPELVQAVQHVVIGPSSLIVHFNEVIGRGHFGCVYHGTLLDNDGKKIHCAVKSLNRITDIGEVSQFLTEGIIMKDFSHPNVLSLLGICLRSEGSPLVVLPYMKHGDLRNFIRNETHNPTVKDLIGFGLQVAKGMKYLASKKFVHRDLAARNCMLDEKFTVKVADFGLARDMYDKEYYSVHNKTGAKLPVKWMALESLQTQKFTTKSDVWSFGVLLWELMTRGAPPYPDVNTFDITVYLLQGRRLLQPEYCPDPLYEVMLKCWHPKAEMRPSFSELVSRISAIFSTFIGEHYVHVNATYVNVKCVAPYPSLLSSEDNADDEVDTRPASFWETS

| SMILES | IC50 ([3]; 72h, Cell titer blue) | IC50 [4] | bioavailability in vivo [5] | half-life in vivo [5] | IC50 ([6]; 72h, Cell titer blue) | IC50 [7] | IC50 [9] | IC50 ([10]; 72h, Cell titer blue) | fold more potent than PF-1066 in H3122 [2] | IC50 [2, 20] | fold more potent against ALK compared to PF-1066 (ALK) | IC50 (ALK) | no significant toxicity (NST) level [13] | IC50 (MET) | IC50 [14] | IC50 [16, 21] | phospho-ALK in 293 cells transfected with EML4-ALK E13;A20 (EML4-ALK E13;A20) | other results |
| --- | --- | --- | --- | --- | --- | --- | --- | --- | --- | --- | --- | --- | --- | --- | --- | --- | --- | --- |
| COc1cc(N2CCC(N3CCN(C)CC3)CC2)ccc1Nc1ncc(Cl)c(Nc2ccccc2S(=O)(=O)C(C)C)n1 [TAE-684, reference compound] |  |  |  |  |  |  |  |  |  |  |  |  |  |  |  |  |  | sensitivity of HCC78 cells [1]: moderate sensitivity; IC50 ([2]; Homo sapiens, NCI-H3122, 72 h, read-out: IC50 H3122 cell growth): 0.005 µM |
| C[C@@H]1CN(C(=O)c2ccc(NC(=O)c3cc(O[C@H](C)c4c(Cl)ccc(F)c4Cl)c(N)nn3)cc2)C[C@H](C)N1 [X-396] | 2.99 µM | 0.009 µM | substantial bioavailability | moderate half-lives | 9.64 µM | 0.156 µM | 0.045 µM | 0.757 µM | 10 fold | 0.015 µM | approximately 10 fold | < 0.0004 µM | 80 mg/kg | 0.00074 µM | 0.068 µM | > 3 µM | greater reductions in phospho-ALK at lower concentrations of drug | plasma level at 2 hours after dosing ([5]; 25mg/kg): 2.28 µM; brain penetration (brain tissue concentration as % of plasma level) ([8]; 25mg/kg): 13%; projected concentration in human brain ([8]; projection from mouse study at a human plasma level of ∼500nM): about 65 nM; cell growth of H2228, combination with rapamycin [9, 19]: synergistic decrease of cell growth; cell growth of H3122, combination with rapamycin [2, 19]: synergistic decrease of cell growth; IC50 ([11]; read-out: IC50 Ba/F3 + EML4-ALK E13;A20 L1196M, Cell titer blue): 0.106 µM; IC50 ([11]; read-out: IC50 Ba/F3 EML4-ALK E13;A20 L1196M): ≤ 0.1 µM; ALK autophosphorylation, L1196M (EML4-ALK E13;A20 L1196M): significantly diminished; endogenous ALK phosphorylation in H3122 [12]: inhibited ALK phosphorylation at lower concentrations of drug; ALK autophosphorylation, C1156Y (EML4-ALK E13;A20 C1156Y): significantly diminished; increase of the liver enzymes AST and ALT at NST level ([13]; 80mg/kg): < 50%; IC50 ([15]; read-out: IC50 Ba/F3 + EML4-ALK E13;A20 C1156Y, Cell titer blue): 0.048 µM; IC50 ([15]; read-out: IC50 Ba/F3 EML4-ALK E13;A20 C1156Y): ≤ 0.1 µM; growth of H3122 xenograft tumors vs vehicle (H3122 xenografts; 25mg/kg bid): significantly delayed the growth of tumors; mouse weight (H3122 xenografts; 25mg/kg bid): unaffected; fold more potent than PF-1066 in Ba/F3 EML4-ALK E13;A20 wild-type ([17]; growth inhibition): ~10 fold; IC50 ([17]; read-out: IC50 Ba/F3 + EML4-ALK E13;A20 WT, 72h, Cell titer blue): 0.022 µM |
| CO[C@H]1C[C@@H]2CC[C@@H](C)[C@@](O)(O2)C(=O)C(=O)N2CCCC[C@H]2C(=O)O[C@H]([C@H](C)C[C@@H]2CC[C@@H](O)[C@H](OC)C2)CC(=O)[C@H](C)/C=C(\C)[C@@H](O)[C@@H](OC)C(=O)[C@H](C)C[C@H](C)/C=C/C=C/C=C/1C [Rapamycin, rapamycin, reference compound] |  |  |  |  |  |  |  |  |  |  |  |  |  |  |  |  |  | proliferation of H2228 cells, rapamycin alone ([9]; 72 hours): small but reproducible decrease; proliferation of H3122 cells, rapamycin alone ([2]; 72 hours): small but reproducible decrease |
| C[C@@H](Oc1cc(C(=O)Nc2ccc(C(=O)N3CCN(C)CC3)cc2)nnc1N)c1c(Cl)ccc(F)c1Cl [X-376] | 3.06 µM | 0.032 µM | substantial bioavailability | moderate half-lives | 15.1 µM | 0.15 µM | 0.057 µM | 1.43 µM | 3 fold | 0.077 µM | approximately 10 fold | 0.00061 µM | 50 mg/kg | 0.00069 µM | 0.142 µM | > 3 µM | greater reductions in phospho-ALK at lower concentrations of drug | plasma level at 2 hours after dosing ([5]; 50mg/kg): 6.27 µM; brain penetration (brain tissue concentration as % of plasma level) ([8]; 50mg/kg): less; IC50 (ROS1): 0.019 µM; apoptosis (Annexin V and propidium iodide) (H3122 cells): increased apoptosis; increase of the liver enzymes AST and ALT at NST level ([13]; 50 mg/kg): < 50%; growth of H3122 xenograft tumors vs vehicle (H3122 xenografts; 50mg/kg bid): significantly delayed the growth of tumors; mouse weight (H3122 xenografts; 50mg/kg bid): unaffected; inhibition of ALK kinase activity of four ALK fusions [18]: dose-dependent inhibition of ALK kinase activity; differences in sensitivity among the four ALK variants ([18]; quantitative examination of immunoblots (data not shown)): no major differences in sensitivity |
| C[C@@H](Oc1cc(-c2cnn(C3CCNCC3)c2)cnc1N)c1c(Cl)ccc(F)c1Cl [PF-1066, crizotinib, reference compound] |  |  |  |  |  |  |  |  |  |  |  |  |  |  |  | 1.35 µM |  | IC50 ([3]; Homo sapiens, 72 h): 1.67 µM; concentration at 2 h ([5]; athymic nude (nu/nu), mouse, plasma, po, 50 mg/kg): 10.2 µM; IC50 ([6]; Homo sapiens, HepG2, 72 h): 14.5 µM; IC50 ([10]; Homo sapiens, NCI-H2030, 72 h): 2.47 µM; IC50 ([16]; Homo sapiens, HCC78, 72 h, read-out: IC50 HCC78, 72h, Cell titer blue): 1.4 µM |
